From patent US8519136B2, “Aminopyridine derivatives having aurora a selective inhibitory action” (MSD K.K., priority 2008, dated 2013) come the findings set out here.

Assay [1] has as its system Human cervical cancer cells (HeLa S3). Kind of assay: Cell growth inhibitory effect, WST-8 method. Format: cell-based. Particulars: 72 h, HeLa S3, three days incubation, read-out: Cell growth inhibitory effect (HeLaS3) (IC50). As for the experimental part: Fetal calf serum (FCS) was purchased from Moregate Biotech, and DMEM medium was purchased from Invitrogen Corp. WST-8 was purchased from Kishida Chemical Co., Ltd.
Human cervical cancer cells (HeLa S3) were obtained from the American Type Culture Collection (ATCC).
Cells were suspended in a DMEM medium containing 10% FCS, and the cell suspension was dispensed to a 96-well plastic plate at a rate of 750 cells/100 microliters per well. The plate was incubated overnight in 5% CO2-95% air at 37° C. A drug was subjected to graded dilution in dimethylsulfoxide and further diluted with a DMEM medium containing 10% FCS. Then, the dilution was dispensed to the plate on which cells had been disseminated, at a rate of 100 microliters per well. The plate was incubated for further three days in 5% CO2-95% air at 37° C. Cell growth after incubation was measured by the WST-8 method (H. Tominaga, et al., Anal. Commun., 36, 47-50 (1999)). Here, the WST-8 method refers to a method in which 20 microliters of a WST-8 reagent solution is added to each well, incubation is conducted at 37° C. for 60 minutes, the plate is stirred, and the amount of formazan produced is measured by a colorimetric method to determine the inhibitory rate of the drug. The concentration for 50% growth inhibition (IC50, μM) of the compound was determined.

The target in assay [2] is T1, His-tagged human Aurora A (Homo sapiens, UniProt O14965).
T1 construct: His (N); made in house; host or cells: Escherichia coli BL21-CodonPlus(DE3)-RIL
T1 sequence (O14965 1-403): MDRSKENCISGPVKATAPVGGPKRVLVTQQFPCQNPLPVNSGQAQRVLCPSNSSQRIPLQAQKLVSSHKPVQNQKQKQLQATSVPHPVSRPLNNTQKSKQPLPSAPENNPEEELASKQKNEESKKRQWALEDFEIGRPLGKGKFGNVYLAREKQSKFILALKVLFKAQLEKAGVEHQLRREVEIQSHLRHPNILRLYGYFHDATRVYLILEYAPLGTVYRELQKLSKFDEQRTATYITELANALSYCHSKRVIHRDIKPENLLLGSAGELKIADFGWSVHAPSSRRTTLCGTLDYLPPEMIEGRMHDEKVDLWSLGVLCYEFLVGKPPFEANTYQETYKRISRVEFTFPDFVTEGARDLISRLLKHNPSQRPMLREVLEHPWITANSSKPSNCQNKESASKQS
Kind of assay: Aurora A inhibitory activity (IMAP fluorescence polarization). Format: biochemical. Conditions: 20 μM ATP, 30° C., 120 minutes. The source says: cDNA of N-terminal His-tagged human Aurora A was integrated into an expression vector, which was then highly expressed in Escherichia coli BL21-CodonPlus(DE3)-RIL cells. The Escherichia coli was harvested and lysed, and then the His-tagged human Aurora A protein was applied onto a nickel chelate column and eluted from the column with imidazole. The active fractions were desalted with a desalting column to give a purified enzyme.
For measurement of the activity of Aurora A, the substrate used was a synthetic peptide (5-FAM (5-carboxyfluorescein)-γ-aminobutyric acid-Ala-Leu-Arg-Arg-Ala-Ser-Leu-Gly-NH2) (SEQ.ID.NO.: 1), which was purchased from Toray Research Center, Inc.
For the phosphorylation reaction, the method by Upstate, Inc. [Kinase Profiler™ Assay Protocols] was referred to, and phosphorylation of the substrate was detected using IMAP® technology (Molecular Devices, Co. Ltd.) (Gaudet E W. et. al, J. Biomol. Screen, 8, 164-175 (2003)). Concretely, the phosphorylation reaction and the detection were carried out as follows:
The phosphorylation reaction was conducted using 384 well plate, and the reaction volume was 10 μl/well. The reaction buffer is comprised of 50 mM Tris-chloride buffer (pH 7.4), 15 mM magnesium acetate, and 0.2 mM ethylenediamine-N,N,N′,N′-tetraacetic acid (EDTA). Thereto, the purified Aurora A protein, 100 nM of the peptide substrate, and 20 μM of adenosine 5′-triphosphate (ATP) were added, and then the reaction was carried out at 30° C. for 120 minutes.
Thereafter, in order to terminate and detect the reaction, 30 μl of the IMAP (registered trademark) binding reagent (IMAP Progressive Binding Reagent, R7284) that had been diluted (1:400) in the 1×IMAP binding buffer A (IMAP Progressive Binding Buffer A, 5× stock, R7282) was added to each well. The solution stood still for 60 minutes in the dark, and then fluorescence polarization was measured using a high-end microplate reader (excitation wavelength: 485 nm; emission wavelength: 520 nm).
The compound to be tested was added to the reaction system such that a dilution series of the compound in dimethylsulfoxide (DMSO) was prepared, and then 0.5 μL of this solution was added for the testing to each well. Each control well was provided by adding 0.5 μL of DMSO to the well in place of the DMSO solution containing the compound to be tested.
In general terms: In fluorescence polarisation assays a small probe gives low polarisation when free and higher when bound to something large.

Assay [3] deals with T2, GST-tagged human Aurora B(AurB)/His-tagged human INCENP complex proteins (Homo sapiens, UniProt Q96GD4).
T2 construct: GST; purchased Carna Biosciences, Inc
T2 sequence (Q96GD4 whole entry): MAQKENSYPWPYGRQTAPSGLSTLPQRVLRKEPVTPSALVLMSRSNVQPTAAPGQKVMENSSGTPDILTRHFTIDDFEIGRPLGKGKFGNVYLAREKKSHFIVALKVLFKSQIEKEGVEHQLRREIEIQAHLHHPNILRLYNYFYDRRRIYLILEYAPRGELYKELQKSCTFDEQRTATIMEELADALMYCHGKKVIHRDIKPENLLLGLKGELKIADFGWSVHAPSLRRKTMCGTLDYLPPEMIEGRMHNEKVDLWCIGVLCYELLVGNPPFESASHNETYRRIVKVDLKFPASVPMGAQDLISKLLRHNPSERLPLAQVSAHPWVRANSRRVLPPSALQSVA
T2 sequence (Q9NQS7 803-916 partner limits assumed): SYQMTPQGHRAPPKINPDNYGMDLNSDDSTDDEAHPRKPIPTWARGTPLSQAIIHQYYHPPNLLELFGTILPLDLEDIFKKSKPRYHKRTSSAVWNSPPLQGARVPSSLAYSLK
In words: Aurora B inhibitory activity (Method A, IMAP kit). Format: biochemical. Conditions: 40 μM ATP, 25° C., 45 minutes. As for the experimental part:
An assay development kit for IMAP (registered trademark) (Aurora B), purchased from Carna Biosciences, Inc., was used for phosphorylation reaction, and the phosphorylation of a substrate was detected using the IMAP technology. The assay development kit used is comprised of an assay buffer, GST-tagged human Aurora B(AurB)/His-tagged human INCENP complex proteins (amino acid sequence: 803-916, AAU04398.1), and an ATP/substrate solution. Using the same, the phosphorylation reaction was conducted in accordance with a partially revised protocol attached to the kit, and then the phosphorylation of the substrate was detected using the IMAP technology.
For the phosphorylation reaction, 384 well plate was used, and the reaction volume was 10 μl/well. The composition of the reaction buffer (assay buffer) is comprised of 20 mM of HEPES buffer (pH 7.4), 0.01% Tween-20, and 2 mM of dithiothreitol (DTT). Thereto, AurB/INCENP complex protein, 100 nM of the substrate, and 40 μM of ATP, and 1 mM of magnesium salt were added, and then the reaction was conducted at 25° C. for 45 minutes. Thereafter, in order to terminate and detect the reaction, 30 μl of the IMAP (registered trademark) binding reagent (IMAP Progressive Binding Reagent, R7284) that had been diluted (1:400) in the 1×IMAP binding buffer A (IMAP Progressive Binding Buffer A, 5× stock, R7282) was added to each well. The solution stood still for 60 minutes in the dark, and then fluorescence polarization was measured using a high-end microplate reader (excitation wavelength: 485 nm; emission wavelength: 520 nm).
The compound to be tested was added to the reaction system such that a dilution series of the compound in DMSO was prepared, and then 0.5 μL of this solution was added for the testing to each well. Each control well was provided by adding 0.5 μL of DMSO to the well in place of the DMSO solution containing the compound to be tested.

Counter-ions that a name gives are not always drawn.

Consider `Cl.O=C(c1cccc(Cl)c1F)N1CCC(O)(Cc2cccc(Nc3cc[nH]n3)n2)CC1` [Example 2, 1-(3-chloro-2-fluorobenzoyl)-4-((6-(1H-pyrazol-3-ylamino)pyridin-2-yl)methyl)piperidin-4-ol hydrochloride], for which the half-inhibitory concentration (IC50) (in general, the point on the concentration scale where inhibition reaches its midpoint) in assay [1] was 780 nM; in assay [2] it was 0.91 nM; in assay [3], 369 nM.

In the case of `O=c1[nH]nc(C2(Cc3cccc(Nc4cc[nH]n4)n3)CCN(S(=O)(=O)c3ccccc3C(F)(F)F)CC2)o1` [Example 14, 5-(4-((6-(1H-pyrazol-3-ylamino)pyridin-2-yl)methyl)-1-((2-(trifluoromethyl)phenyl)sulfonyl)piperidin-4-yl)-1,3,4-oxadiazol-2(3H)-one trifluoroacetate], the IC50 was 1730 nM in assay [1], 0.4 nM in assay [2] and > 1000 nM in assay [3].

Turning to `O=c1[nH]nc(C2(Cc3cccc(Nc4cc[nH]n4)n3)CCN(C(c3cccc(C(F)(F)F)c3)C(F)(F)F)CC2)o1` (stereo not drawn) [Example 19, 5-(4-((6-(1H-pyrazol-3-ylamino)pyridin-2-yl)methyl)-1-(2,2,2-trifluoro-1-(3-(trifluoromethyl)phenyl)ethyl)piperidin-4-yl)-1,3,4-oxadiazol-2(3H)-one trifluoroacetate], the IC50 in assay [1] is 1010 nM; in assay [2], 1.27 nM; in assay [3] it was > 1000 nM.
